According to the supplement of paper PMC10307832:

Assays:
Test in all cases: relative viability (nuclei count vs DMSO), 5 days (fraction); higher = more cells survive
[1] = compound: C1=CC=C2C(=C1)C=CC(=C2SSC3=C(C=CC4=CC=CC=C43)O)O [IPA-3] + CC(=O)Nc1cccc(-n2c(=O)n(C3CC3)c(=O)c3c(Nc4ccc(I)cc4F)n(C)c(=O)c(C)c32)c1 [Trametinib] (partner 0.02 µM)
Summary of the method: (§1)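 One day after seeding in 1536-well plates, lung cancer cell lines were dosed by pin tool. Dosing was either single-drug or a fixed anchor-drug dose plus five library-drug doses (not always all listed) in √10 steps. After 5 days, nuclei were stained in one fix-and-stain step and counted on 4× images, and relative viability is the nuclei count of treated wells over that of vehicle wells, given as the median of duplicate plates.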

[2] = compound: C1=CC=C2C(=C1)C=CC(=C2SSC3=C(C=CC4=CC=CC=C43)O)O [IPA-3] + Nc1nc2[nH]cc(CCc3ccc(C(=O)N[C@@H](CCC(=O)O)C(=O)O)cc3)c2c(=O)[nH]1 [Pemetrexed] (partner 0.2 µM)
Summary of the method: as §1

[3] = compound: Cc1ccc(-n2nc(C(C)(C)C)cc2NC(=O)Nc2ccc(OCCN3CCOCC3)c3ccccc23)cc1 [Doramapimod] + CCNC(=O)c1noc(-c2cc(C(C)C)c(O)cc2O)c1-c1ccc(CN2CCOCC2)cc1 [Luminespib] (partner 0.01 µM)
Summary of the method: as §1

[4] = compound: Cc1ccc(-n2nc(C(C)(C)C)cc2NC(=O)Nc2ccc(OCCN3CCOCC3)c3ccccc23)cc1 [Doramapimod] + NC(=O)Nc1cc(-c2cccc(F)c2)sc1C(=O)N[C@H]1CCCNC1 [AZD7762] (partner 0.2 µM)
Summary of the method: as §1

Cell Line | relative viability ([1]; first compound 0.2 µM) | relative viability ([1]; first compound 0.6325 µM) | relative viability ([1]; first compound 2 µM) | relative viability ([1]; first compound 6.325 µM) | relative viability ([1]; first compound 20 µM) | relative viability ([2]; first compound 0.2 µM) | relative viability ([2]; first compound 0.6325 µM) | relative viability ([2]; first compound 2 µM) | relative viability ([2]; first compound 6.325 µM) | relative viability ([2]; first compound 20 µM) | relative viability ([3]; first compound 0.02 µM) | relative viability ([3]; first compound 0.06325 µM) | relative viability ([3]; first compound 0.2 µM) | relative viability ([3]; first compound 0.6325 µM) | relative viability ([3]; first compound 2 µM) | relative viability ([4]; first compound 0.02 µM) | relative viability ([4]; first compound 0.06325 µM) | relative viability ([4]; first compound 0.2 µM) | relative viability ([4]; first compound 0.6325 µM) | relative viability ([4]; first compound 2 µM)
NCI-H661 | 0.679 | 0.584 | 0.613 | 0.589 | 0.555 | 0.934 | 0.962 | 0.877 | 0.911 | 0.907 | 0.99 | 0.917 | 0.986 | 0.914 | 0.909 | – | – | – | – | –
COR-L23 | 0.743 | 0.557 | 0.654 | 0.579 | 0.21 | 0.212 | 0.194 | 0.193 | 0.198 | 0.204 | 0.71 | 0.659 | 0.787 | 0.741 | 0.541 | – | – | – | – | –
HCC-78 | 0.832 | 0.714 | 0.806 | 0.849 | 0.918 | 0.918 | 0.894 | 0.999 | 0.869 | 0.953 | – | – | – | – | – | 0.518 | 0.642 | 0.705 | 0.756 | 0.75
SW 1573 | 0.67 | 0.546 | 0.46 | 0.532 | 0.271 | 0.964 | 0.87 | 0.921 | 0.906 | 0.162 | 0.235 | 0.181 | 0.207 | 0.692 | 0.185 | – | – | – | – | –
SK-MES-1 | 0.568 | 0.528 | 0.618 | 0.639 | 0.659 | 1.04 | 0.886 | 0.991 | 0.824 | 0.918 | 0.725 | 0.563 | 0.694 | 0.836 | 0.601 | – | – | – | – | –
NCI-H2023 | 0.735 | 0.453 | 0.659 | 0.612 | 0.584 | 0.249 | 0.207 | 0.266 | 0.227 | 0.243 | 0.656 | 0.77 | 0.74 | 0.929 | 0.614 | – | – | – | – | –
NCI-H2009 | 0.307 | 0.266 | 0.245 | 0.279 | 0.241 | 1.16 | 0.974 | 1.03 | 0.958 | 1.09 | 1.05 | 1.17 | 1.12 | 1.23 | 1.04 | – | – | – | – | –
NCI-H2228 | 0.768 | 0.405 | 0.365 | 0.634 | 0.379 | 0.369 | 0.334 | 0.336 | 0.354 | 0.341 | 0.151 | 0.151 | 0.107 | 0.14 | 0.131 | – | – | – | – | –
ABC-1 | – | – | – | – | – | – | – | – | – | – | 0.423 | 0.67 | 0.156 | 0.863 | 0.555 | 0.761 | 0.674 | 0.874 | 0.794 | 0.674
NCI-H520 | 1.01 | 0.654 | – | 0.685 | 0.528 | 0.75 | 0.664 | – | 0.64 | 0.755 | 0.195 | 0.212 | 0.24 | 0.206 | 0.232 | – | – | – | – | –
NCI-H1703 | – | – | – | – | – | – | – | – | – | – | – | – | – | – | – | – | 0.118 | 0.108 | 0.0991 | 0.113
